According to publication PMC6270976, “Pharmacokinetic Study in Mice of Galphimine-A, an Anxiolytic Compound from Galphimia glauca” (Molecules, 2014):
Entries after “also recorded” stand apart in the source; their conditions may differ. Like-named read-outs stand apart in the source and are kept apart here.

Key:
[1] = Plasma pharmacokinetics of G–A after a single oral dose in ICR mice (HPLC, PKSolver); format: in vivo; parameters: t1/2ka (absorption half time): unit not given here; settings: for AUC(0-inf) / Cmax / Tmax / AUC(0-t) / CL/F / MRT / Vd/F / k el: ICR, po, 200 mg/kg; for AUC(0-t): read-out: AUC0-1440 min (converted); for CL/F: read-out: CL/F (apparent clearance); for MRT: read-out: MRT (mean residence time) (converted); for Vd/F: read-out: V/F (apparent volume of distribution)
Protocol: Eighty-eight mice were randomly divided into 11 groups with eight individuals each. All animals were orally administered with 200 mg/kg of G–A dissolved in 5% β-cyclodextrin solution. Under ether-induced anesthesia, blood samples were obtained from the retroorbital sinus with heparinized cannula at different times (0, 5, 10, 15, 30, 60, 120, 240, 480, 720, and 1,440 min) after G–A administration. The volume of the blood samples was of 700 to 1000 microliters, which were collected in heparinized centrifuge microtubes, after the blood was centrifuged for 5 min at 1,720 × g.
Plasma samples were frozen at −70 °C, and lyophilized after. The obtained dry product was used to extract and measure the amount of G–A. After obtaining blood samples, all animals were perfused with isotonic saline solution (ISS) via cardiac puncture; the femoral vein was used to eliminate the perfusion liquid, until it appeared clear. Subsequently, the brain was removed. The brains were weighed fresh and frozen at −70 °C and then lyophilized. Once dry, the brains were weighed again to determine the volume of water contained in each brain. Dry tissue was ground in a mortar, and G–A was later extracted.
Dry pulverized samples (plasma and brain) were extracted with methanol (HPLC grade, Merck). The extracts were filtered with a 0.45 μm, 13 mm Teflon membrane (Millex®-LCR), and 20 μL of filtrate were injected into the HPLC equipment. Measurements were performed in a Waters 2695 HPLC, with diode array detector (Waters 2996) and the Empower Pro 1.0 software. A Chromolith Performance® RP-18e 100 × 4.6 mm (Merck KGaA Darmstadt, Germany) was used. The mobile phase consisted of a mixture of acetonitrile:water (55:45, 1 mL/min). G–A concentration was obtained by comparison with a pre-built calibration curve at λ = 220 nm.
To evaluate the suitability of the assay for pharmacokinetic studies, 200 mg/kg of G–A was orally administered to mice. Eight animals were used in each group different times (0, 5, 10, 15, 30, 60, 120, 240, 480, 720, and 1440 min). Pharmacokinetic calculations were performed using the observed data. All data were subsequently processed using PKSolver add-in program for Microsoft Excel written in Visual Basic for Applications. […]
The pharmacokinetic model selection either one or two-comparment, were used both the Akaike information criterion (AIC) and Schwarz criterion (SC). Using the criteria, one may select the model with which to reach a lower value of AIC or SC, which means that the chosen model is more parsimonious (less parameters required) and best fits the data (low error prediction).

[2] = cited from earlier work
[3] = mouse, plasma, one-compartment model, oral 200 mg/kg
[4] = mouse, plasma, plasma, one-compartment model, oral 200 mg/kg
[5] = mouse, plasma, plasma, two-compartment model, oral 200 mg/kg
[6] = mouse, plasma, two-compartment model, oral 200 mg/kg
[7] = plasma, one-compartment model, oral 200 mg/kg
[8] = plasma, two-compartment model, oral 200 mg/kg

COC(=O)[C@@]12CC[C@]3(C)C([C@H](O)[C@H](O)[C@@]4([C@@H](C)O)COC(=O)C=C[C@H]43)[C@@]1(C)CC[C@@]1(C)CC=C(C)C[C@]12O (stereo partly drawn) [G–A, galphimine-A]
G–A Concentration Plasma ([1]; 5 min after single oral 200 mg/kg, mean ± S.E.M., n = 8, 200 mg/kg): 2.47 ± 0.43 µg/mL
AUC(0-inf) [1, 3]: 36200 ng·h/mL
Cmax [1, 3]: 3330 ng/mL
Tmax [1, 3]: 0.436 h
AUC(0-t) [1, 4]: 32500 ng·h/mL
CL/F [1, 4]: 92 mL/min/kg
MRT [1, 4]: 10.5 h
Vd/F [1, 4]: 57.6 L/kg
k el ([1]; mouse, plasma, plasma, one-compartment model, oral 200 mg/kg, read-out: k10 (apparent first-order elimination rate constant) (converted)): 2.67e-05 s⁻¹
k el ([1]; mouse, plasma, plasma, one-compartment model, oral 200 mg/kg, read-out: k10 (elimination rate constant) (converted)): 2.67e-05 s⁻¹
AUC(0-t) [1, 5]: 30400 ng·h/mL
CL/F [1, 5]: 98 mL/min/kg
MRT [1, 5]: 10.3 h
Vd/F [1, 5]: 55.5 L/kg
k el ([1]; mouse, plasma, plasma, two-compartment model, oral 200 mg/kg, read-out: k10 (apparent first-order elimination rate constant) (converted)): 2.83e-05 s⁻¹
k el ([1]; mouse, plasma, plasma, two-compartment model, oral 200 mg/kg, read-out: k10 (elimination rate constant) (converted)): 2.83e-05 s⁻¹
AUC(0-inf) [1, 6]: 33800 ng·h/mL
Cmax [1, 6]: 3420 ng/mL
Tmax [1, 6]: 0.456 h
concentration at 5 min ([1]; mouse, plasma, 5 min after single oral 200 mg/kg, mean ± S.E.M., n = 8): 2470 ng/mL
concentration at 10 min ([1]; mouse, plasma, 10 min after single oral 200 mg/kg, mean ± S.E.M., n = 8): 2570 ± 520 ng/mL
concentration at 15 min ([1]; mouse, plasma, 15 min after single oral 200 mg/kg, mean ± S.E.M., n = 8): 2790 ± 790 ng/mL
concentration at 30 min ([1]; mouse, plasma, 30 min after single oral 200 mg/kg, mean ± S.E.M., n = 8): 3700 ± 700 ng/mL
concentration at 60 min ([1]; mouse, plasma, 60 min after single oral 200 mg/kg, mean ± S.E.M., n = 8): 3440 ± 350 ng/mL
concentration at 120 min ([1]; mouse, plasma, 120 min after single oral 200 mg/kg, mean ± S.E.M., n = 8): 2950 ± 430 ng/mL
concentration at 240 min ([1]; mouse, plasma, 240 min after single oral 200 mg/kg, mean ± S.E.M., n = 8): 2330 ± 420 ng/mL
concentration at 480 min ([1]; mouse, plasma, 480 min after single oral 200 mg/kg, mean ± S.E.M., n = 8): 1440 ± 370 ng/mL
concentration at 720 min ([1]; mouse, plasma, 720 min after single oral 200 mg/kg, mean ± S.E.M., n = 8): 960 ± 210 ng/mL
concentration at 1440 min ([1]; mouse, plasma, 1440 min after single oral 200 mg/kg, mean ± S.E.M., n = 8): 310 ± 20 ng/mL
Plasma area under the G–A concentration time curve ([1]; one-compartment model, oral 200 mg/kg): 2,170 μg·min·mL^−1
Time to detection in plasma after oral administration ([1]; oral 200 mg/kg): ≤ 5 min
A (G–A plasma concentration in central compartment) [1, 7]: 3.50 µg/mL
ka (apparent first-order absorption rate constant) [1, 7]: 0.182 min⁻¹
t1/2ka (absorption half time) [1, 7]: 3.79
A (G–A plasma concentration in central compartment) [1, 8]: 1.83 µg/mL
B (G–A plasma concentration in peripheral compartment) [1, 8]: 1.82 µg/mL
k12 (transfer rate constant central to peripheral compartment) [1, 8]: 0.00017 min⁻¹
k21 (transfer rate constant peripheral to central compartment) [1, 8]: 0.00195 min⁻¹
ka (apparent first-order absorption rate constant) [1, 8]: 0.164 min⁻¹
t1/2ka (absorption half time) [1, 8]: 4.22
α [1, 8]: 0.0025 min⁻¹
β [1, 8]: 0.0014 min⁻¹
Plasma area under the G–A concentration time curve ([1]; two-compartment model, oral 200 mg/kg): 2,030 μg·min·mL^−1
Anxiolytic effect ([2]; 15 mg/kg dose administered intraperitoneally): anxiolytic effects
Anxiolytic activity ([2]; among the galphimines): most active; also recorded: highest anxiolytic activity
